According to patent US8232288B2, “Substituted benzimidazoles, benzothiazoles and benzoxazoles” (Gruenenthal GmbH, priority 2009, dated 2012):

Legend:
[1] = target: T1, human B1R receptor (hB1R) (Homo sapiens, UniProt P46663); assay: Functional investigation on the bradykinin receptor 1 (B1R), FLIPR Ca2+ assay, hB1R cells; assay type: cell-based
T1 construct: expressed in transfected cells; host or cells: CHO K1 cells
T1 sequence (P46663 1-353): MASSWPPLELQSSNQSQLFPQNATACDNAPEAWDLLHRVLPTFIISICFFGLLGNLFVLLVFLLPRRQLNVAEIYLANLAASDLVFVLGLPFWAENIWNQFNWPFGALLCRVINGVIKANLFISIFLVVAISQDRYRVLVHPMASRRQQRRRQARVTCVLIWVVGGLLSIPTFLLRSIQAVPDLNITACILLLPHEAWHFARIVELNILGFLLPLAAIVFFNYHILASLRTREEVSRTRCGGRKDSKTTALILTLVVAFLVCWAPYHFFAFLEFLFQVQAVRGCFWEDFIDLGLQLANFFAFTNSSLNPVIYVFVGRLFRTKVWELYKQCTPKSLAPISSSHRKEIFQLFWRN
Outline: (§1)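 Stably transfected CHO K1 cells expressing human or rat B1R were loaded with Fluo-4, and Ca2+ fluorescence was read on a FLIPR. Compound (10 μM) was added first to measure activation. After 10–20 min, agonist at EC80 was added (Lys-Des-Arg9-bradykinin for hB1R, Des-Arg9-bradykinin for rB1R) to give % inhibition. IC50 values came from concentration series.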

[2] = target: T2, B1R receptor of the rat (rB1R) (Rattus norvegicus, UniProt P97583); assay: Functional investigation on the bradykinin receptor 1 (B1R), FLIPR Ca2+ assay, rB1R cells; assay type: cell-based
T2 construct: expressed in transfected cells; host or cells: CHO K1 cells
T2 sequence (P97583 1-337): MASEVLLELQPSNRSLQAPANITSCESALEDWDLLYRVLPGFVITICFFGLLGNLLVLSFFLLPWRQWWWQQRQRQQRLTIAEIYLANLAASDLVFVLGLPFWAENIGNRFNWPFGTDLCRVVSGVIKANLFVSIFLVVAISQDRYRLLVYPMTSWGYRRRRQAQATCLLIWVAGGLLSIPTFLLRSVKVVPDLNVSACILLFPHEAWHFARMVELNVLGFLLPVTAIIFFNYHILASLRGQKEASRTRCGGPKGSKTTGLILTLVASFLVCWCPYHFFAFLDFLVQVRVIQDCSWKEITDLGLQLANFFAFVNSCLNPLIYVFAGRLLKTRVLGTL
Outline: as §1

COc1cc(C)c(S(=O)(=O)N(C)C(C)c2nc3cccc(C(=O)N4CCC5(CCN(Cc6cncn6C)CC5)CC4)c3[nH]2)c(C)c1 (centres unmarked) [I_CC-36, 4-Methoxy-N,2,6-trimethyl-N-[1-[7-[9-[(3-methyl-3H-imidazol-4-yl)-methyl]-3,9-diazaspiro[5.5]undecane-3-carbonyl]-1H-benzoimidazol-2-yl]-ethyl]-benzenesulfonic acid amide]
inhibition at 10 µM [1]: 82% | inhibition at 10 µM [2]: 100%

COc1cc(C)c(S(=O)(=O)N(C)C(C)c2nc3cccc(C(=O)N4CCC5(CCN(Cc6c[nH]c(C)n6)CC5)CC4)c3[nH]2)c(C)c1 (centres unmarked) [I_CC-37, 4-Methoxy-N,2,6-trimethyl-N-[1-[7-[9-[(2-methyl-1H-imidazol-4-yl)-methyl]-3,9-diazaspiro[5.5]undecane-3-carbonyl]-1H-benzoimidazol-2-yl]-ethyl]-benzenesulfonic acid amide]
inhibition at 10 µM [1]: 80% | inhibition at 10 µM [2]: 101%

COc1cc(C)c(S(=O)(=O)N(C)C(C)c2nc3cccc(C(=O)N4CCC5(CCN(Cc6csnn6)CC5)CC4)c3[nH]2)c(C)c1 (centres unmarked) [I_CC-38, 4-Methoxy-N,2,6-trimethyl-N-[1-[7-[9-([1,2,3]thiadiazol-4-yl-methyl)-3,9-diazaspiro[5.5]undecane-3-carbonyl]-1H-benzoimidazol-2-yl]-ethyl]-benzenesulfonic acid amide]
inhibition at 10 µM [1]: 85% | inhibition at 10 µM [2]: 97%

COc1cc(C)c(S(=O)(=O)N(C)C(C)c2nc3cccc(C(=O)N4CCC5(CCN(Cc6ccc(F)cc6Cl)CC5)CC4)c3[nH]2)c(C)c1 (centres unmarked) [I_CC-39, N-[1-[7-[9-[(2-Chloro-4-fluoro-phenyl)-methyl]-3,9-diazaspiro[5.5]undecane-3-carbonyl]-1H-benzoimidazol-2-yl]-ethyl]-4-methoxy-N,2,6-trimethyl-benzenesulfonic acid amide]
inhibition at 10 µM [1]: 49% | inhibition at 10 µM [2]: 95%

COc1cc(C)c(S(=O)(=O)N(C)C(C)c2nc3cccc(C(=O)N4CCC5(CCN(Cc6c(F)cccc6Cl)CC5)CC4)c3[nH]2)c(C)c1 (centres unmarked) [I_CC-40, N-[1-[7-[9-[(2-Chloro-6-fluoro-phenyl)-methyl]-3,9-diazaspiro[5.5]undecane-3-carbonyl]-1H-benzoimidazol-2-yl]-ethyl]-4-methoxy-N,2,6-trimethyl-benzenesulfonic acid amide]
inhibition at 10 µM [1]: 49% | inhibition at 10 µM [2]: 99%

COc1cc(C)c(S(=O)(=O)N(C)C(C)c2nc3cccc(C(=O)N4CCC5(CCN(Cc6cnn(C)c6C)CC5)CC4)c3[nH]2)c(C)c1 (centres unmarked) [I_CC-41, N-[1-[7-[9-[(1,5-Dimethyl-1H-pyrazol-4-yl)-methyl]-3,9-diazaspiro[5.5]undecane-3-carbonyl]-1H-benzoimidazol-2-yl]-ethyl]-4-methoxy-N,2,6-trimethyl-benzenesulfonic acid amide]
inhibition at 10 µM [1]: 83% | inhibition at 10 µM [2]: 98%

COc1cc(C)c(S(=O)(=O)N(C)C(C)c2nc3cccc(C(=O)N4CCC5(CCN(Cc6c(C)noc6C)CC5)CC4)c3[nH]2)c(C)c1 (centres unmarked) [I_CC-42, N-[1-[7-[9-[(3,5-Dimethyl-isoxazol-4-yl)-methyl]-3,9-diazaspiro[5.5]undecane-3-carbonyl]-1H-benzoimidazol-2-yl]-ethyl]-4-methoxy-N,2,6-trimethyl-benzenesulfonic acid amide]
inhibition at 10 µM [1]: 76% | inhibition at 10 µM [2]: 90%

COc1cc(C)c(S(=O)(=O)N(C)C(C)c2nc3cccc(C(=O)N4CCC5(CCN(Cc6ccc(C#N)cc6)CC5)CC4)c3[nH]2)c(C)c1 (centres unmarked) [I_CC-43, N-[1-[7-[9-[(4-Cyano-phenyl)-methyl]-3,9-diazaspiro[5.5]undecane-3-carbonyl]-1H-benzoimidazol-2-yl]-ethyl]-4-methoxy-N,2,6-trimethyl-benzenesulfonic acid amide]
inhibition at 10 µM [1]: 85% | inhibition at 10 µM [2]: 98%

COc1cc(C)c(S(=O)(=O)N(C)C(C)c2nc3cccc(C(=O)N4CCC5(CCN(Cc6cccc(C#N)c6)CC5)CC4)c3[nH]2)c(C)c1 (centres unmarked) [I_CC-44, N-[1-[7-[9-[(3-Cyano-phenyl)-methyl]-3,9-diazaspiro[5.5]undecane-3-carbonyl]-1H-benzoimidazol-2-yl]-ethyl]-4-methoxy-N,2,6-trimethyl-benzenesulfonic acid amide]
inhibition at 10 µM [1]: 84% | inhibition at 10 µM [2]: 101%

COc1cc(C)c(S(=O)(=O)N(C)C(C)c2nc3cccc(C(=O)N4CCC5(CCN(Cc6ccccc6C#N)CC5)CC4)c3[nH]2)c(C)c1 (centres unmarked) [I_CC-45, N-[1-[7-[9-[(2-Cyano-phenyl)-methyl]-3,9-diazaspiro[5.5]undecane-3-carbonyl]-1H-benzoimidazol-2-yl]-ethyl]-4-methoxy-N,2,6-trimethyl-benzenesulfonic acid amide]
inhibition at 10 µM [1]: 81% | inhibition at 10 µM [2]: 98%

COc1cc(C)c(S(=O)(=O)N(C)C(C)c2nc3cccc(C(=O)N4CCC5(CCN(C(=O)c6ccc(C(F)(F)F)cn6)CC5)CC4)c3[nH]2)c(C)c1 (centres unmarked) [I_CC-46, 4-Methoxy-N,2,6-trimethyl-N-[1-[7-[9-[5-(trifluoromethyl)-pyridine-2-carbonyl]-3,9-diazaspiro[5.5]undecane-3-carbonyl]-1H-benzoimidazol-2-yl]-ethyl]-benzenesulfonic acid amide]
inhibition at 10 µM [1]: 42% | inhibition at 10 µM [2]: 89%

COc1cc(C)c(S(=O)(=O)N(C)C(C)c2nc3cccc(C(=O)N4CCC5(CCN(C(=O)c6cnccn6)CC5)CC4)c3[nH]2)c(C)c1 (centres unmarked) [I_CC-47, 4-Methoxy-N,2,6-trimethyl-N-[1-[7-[9-(pyrazine-2-carbonyl)-3,9-diazaspiro[5.5]undecane-3-carbonyl]-1H-benzoimidazol-2-yl]-ethyl]-benzenesulfonic acid amide]
inhibition at 10 µM [1]: 58% | inhibition at 10 µM [2]: 90%

COc1cc(C)c(S(=O)(=O)N(C)C(C)c2nc3cccc(C(=O)N4CCC5(CCN(C(=O)c6cccnc6SC)CC5)CC4)c3[nH]2)c(C)c1 (centres unmarked) [I_CC-48, 4-Methoxy-N,2,6-trimethyl-N-[1-[7-[9-(2-methylsulfanyl-pyridine-3-carbonyl)-3,9-diazaspiro[5.5]undecane-3-carbonyl]-1H-benzoimidazol-2-yl]-ethyl]-benzenesulfonic acid amide]
inhibition at 10 µM [1]: 61% | inhibition at 10 µM [2]: 89%

COc1cc(C)c(S(=O)(=O)N(C)C(C)c2nc3cccc(C(=O)N4CCC5(CCN(C(=O)c6ccc(C#N)cc6)CC5)CC4)c3[nH]2)c(C)c1 (centres unmarked) [I_CC-49, N-[1-[7-[9-(4-Cyano-benzoyl)-3,9-diazaspiro[5.5]undecane-3-carbonyl]-1H-benzoimidazol-2-yl]-ethyl]-4-methoxy-N,2,6-trimethyl-benzenesulfonic acid amide]
inhibition at 10 µM [1]: 72% | inhibition at 10 µM [2]: 87%

COc1cc(C)c(S(=O)(=O)N(C)C(C)c2nc3cccc(C(=O)N4CCC5(CC4)CCN(C(=O)C4CC4)CC5)c3[nH]2)c(C)c1 (centres unmarked) [I_CC-50, N-[1-[7-[9-(Cyclopropanecarbonyl)-3,9-diazaspiro[5.5]undecane-3-carbonyl]-1H-benzoimidazol-2-yl]-ethyl]-4-methoxy-N,2,6-trimethyl-benzenesulfonic acid amide]
inhibition at 10 µM [1]: 62% | inhibition at 10 µM [2]: 88%

COc1cc(C)c(S(=O)(=O)N(C)C(C)c2nc3cccc(C(=O)N4CCC5(CCN(C(=O)CC(C)(C)C)CC5)CC4)c3[nH]2)c(C)c1 (centres unmarked) [I_CC-51, N-[1-[7-[9-(3,3-Dimethyl-butanoyl)-3,9-diazaspiro[5.5]undecane-3-carbonyl]-1H-benzoimidazol-2-yl]-ethyl]-4-methoxy-N,2,6-trimethyl-benzenesulfonic acid amide]
inhibition at 10 µM [1]: 78% | inhibition at 10 µM [2]: 88%

COc1cc(C)c(S(=O)(=O)N(C)C(C)c2nc3cccc(C(=O)N4CCC5(CCN(C(=O)c6ccc(F)cc6Cl)CC5)CC4)c3[nH]2)c(C)c1 (centres unmarked) [I_CC-52, N-[1-[7-[9-(2-Chloro-4-fluoro-benzoyl)-3,9-diazaspiro[5.5]undecane-3-carbonyl]-1H-benzoimidazol-2-yl]-ethyl]-4-methoxy-N,2,6-trimethyl-benzenesulfonic acid amide]
inhibition at 10 µM [1]: 77% | inhibition at 10 µM [2]: 93%

COc1cc(C)c(S(=O)(=O)N(C)C(C)c2nc3cccc(C(=O)N4CCC5(CCN(C(=O)c6ccc(F)cc6F)CC5)CC4)c3[nH]2)c(C)c1 (centres unmarked) [I_CC-53, N-[1-[7-[9-(2,4-Difluoro-benzoyl)-3,9-diazaspiro[5.5]undecane-3-carbonyl]-1H-benzoimidazol-2-yl]-ethyl]-4-methoxy-N,2,6-trimethyl-benzenesulfonic acid amide]
inhibition at 10 µM [1]: 85% | inhibition at 10 µM [2]: 88%

COc1cc(C)c(S(=O)(=O)N(C)C(C)c2nc3cccc(C(=O)N4CCC5(CC4)CCN(C(=O)c4cc(C(C)(C)C)nn4C)CC5)c3[nH]2)c(C)c1 (centres unmarked) [I_CC-54, N-[1-[7-[9-(5-tert-Butyl-2-methyl-2H-pyrazole-3-carbonyl)-3,9-diazaspiro[5.5]undecane-3-carbonyl]-1H-benzoimidazol-2-yl]-ethyl]-4-methoxy-N,2,6-trimethyl-benzenesulfonic acid amide]
inhibition at 10 µM [1]: 63% | inhibition at 10 µM [2]: 92%
